The values that follow come from patent US20210085692A1, “AGENTS, COMPOSITIONS AND METHODS FOR TREATING AND PREVENTING ALZHEIMER'S DISEASE” (UNIVERSITY OF SOUTHERN CALIFORNIA, priority 2018, published 2021).

As a reminder, the Cmax is the maximum level reached in the sampled fluid or tissue.

Data set [1] deals with humanized ApoE3,3, ApoE4,4 and ApoE3,4 mice. Put plainly: Novel Object Recognition (NOR) memory test. The class given is in vivo. The conditions noted are these: for Novel Object Discrimination Index / Novel Object Exploration time: vs saline. On the procedure: To access impact of Allopregnanolone (Allo) on memory function, humanized ApoE3,3, ApoE4,4 and ApoE3,4 mice were tested using Novel Object Recognition (NOR) in accordance with published literature (Antunes and Biala, Cogn Process. 2012 May; 13(2): 93-110; Ennaceur, Behav Brain Res. 2010 Dec. 31; 215(2):244-54. doi: 10.1016/j.bbr.2009.12.036. Epub 2010 Jan. 7; Leger et al., Nat Protoc. 2013 December; 8(12):2531-7. doi: 10.1038/nprot.2013.155. Epub 2013 Nov. 21; Piterkin et al., Learn. Mem., 15 (2008), pp. 785-791; Taglialatela et al., Behav Brain Res. 200(1): 95-99. 2009).
Behavioral NOR testing was conducted following 24 weekly injections of Allopregnanolone (Allo; 1.5 mg/mL) or saline (0.9%). The Allo and saline used to treat the mice were identical to the Allo and saline used in the clinical trial (ClinicalTrials.gov Identifier: NCT02221622).
Behavioral testing and analysis of behavioral outcomes were conducted blind to the experimental condition. Code for treatment groups was unblinded for statistical analyses by analyst who was independent of behavioral testing.
Difference in exploration time (in seconds) was calculated by subtracting the time spent exploring the familiar object from that of the novel object (Tn−Tf) and denoted by ‘Df’. Second, a ratio of the difference in exploration time to the total time spent exploring was calculated (Tn−Tf/Tn+Tf) and denoted by Discrimination Index (DI). The DI can vary between +1 and −1, where a positive score indicates more time spent with the novel object, a negative score indicates more time spent with the familiar object, and a zero score indicates a null preference (Antunes and Biala, 2012). The DI adjusts for difference in total exploration time (Broadbent et al.). Statistical analyses were conducted using Mann-Whitney test and p-value of less than 0.05 was considered significant.

The conditions of data set [2]: intravenous doses in the same dose range, earlier studies; cited from earlier work.
In data set [3] the test system is patients with mild cognitive impairment due to AD or mild AD or dementia. Put plainly: Phase 1 clinical trial: safety, tolerability and maximally tolerated dose. In kind it is in vivo, human. On the procedure: (§1) Clinical Trials were carried out in adult humans (see gov Identifier: NCT02221622 for the ongoing Phase 1b/2a clinical trial at https://clinicaltrials.gov/ct2/show/NCT02221622).
(§2) A randomized double-blind, placebo controlled, multiple ascending dose, phase 1 clinical trial was conducted in patients with mild cognitive impairment due to AD or mild AD or dementia.
Participants were randomly assigned to receive weekly intravenous infusion of either 2 mg, 4 mg, or 6 mg of Allo or placebo (N=6/group) for 12 weeks. Primary outcomes were to assess safety, tolerability and determine maximally tolerated dose (MTD). Secondary exploratory outcomes were the feasibility and impact of Allo on MRI indicators of regeneration and cognition. […]
The trial evaluated three doses (2.0, 4.0 and 6.0 mg) of allopregnanolone (Allo) in a delivery vehicle of 6% sulfobutylether-β-cyclodextrin and 0.9% sodium chloride and placebo containing an equal volume of 0.9% sodium chloride for injection USP administered by intravenous sinfusion once per week for 12 weeks. […] Grouped differences from placebo-treated participants were evaluated in an exploratory fashion using the outcomes planned for the larger phase 2, proof of concept trial in order to obtain parameter estimates for the trial design.] […]

Data set [4] shares this test system. Put plainly: Phase 1 clinical trial: MRI indicators of regeneration (gray matter, hippocampal volume). The class given is in vivo, human.
For data set [5] the test system is unchanged. The experiment in a line: Phase 1 clinical trial: cognition (ADAScog14, Cog state). In kind it is in vivo, human. The settings on record: 12 weeks, once per week. On the procedure: as §2
(§3) Participants were randomly assigned to receive weekly intravenous infusion of either 2 mg, 4 mg, or 6 mg of Allo or placebo (N=6/group) for 12 weeks. Primary outcomes were to assess safety, tolerability and determine maximally tolerated dose (MTD). Secondary exploratory outcomes were the feasibility and impact of Allo on MRI indicators of regeneration and cognition. Lymphocyte derived iPSCs differentiated to neural stem cells were used to develop biomarker strategy to identify potential regenerative responders.
The standard Phase I dose escalation double-blind, placebo-controlled, single site trial included 24 research participants in three dose cohorts. […]
The trial evaluated three doses (2.0, 4.0 and 6.0 mg) of allopregnanolone (Allo) in a delivery vehicle of 6% sulfobutylether-β-cyclodextrin and 0.9% sodium chloride and placebo containing an equal volume of 0.9% sodium chloride for injection USP administered by intravenous sinfusion once per week for 12 weeks. […] Grouped differences from placebo-treated participants were evaluated in an exploratory fashion using the outcomes planned for the larger phase 2, proof of concept trial in order to obtain parameter estimates for the trial design.]

The nature of data set [6]: Phase 1 multiple ascending dose clinical trial: plasma levels after weekly intravenous infusion. The class given is in vivo, human. The settings on record: for Cmax: human, plasma. As to the method:
as §1, §2, §3
The standard Phase I dose escalation double-blind, placebo-controlled, single site trial included 24 research participants in three dose cohorts. Each cohort included 8 research participants randomized to drug or placebo in a 6:2 allocation ratio. Cohorts as follows: • Dosing cohort 1) 2 mg Allo or placebo • Dosing cohort 2) 4 mg Allo or placebo • Dosing cohort 3) 6 mg Allo or placebo Each dose cohort was separated by 6 weeks to process, obtain, and assess all safety and tolerability data.
The trial evaluated three doses (2.0, 4.0 and 6.0 mg) of allopregnanolone (Allo) in a delivery vehicle of 6% sulfobutylether-β-cyclodextrin and 0.9% sodium chloride and placebo containing an equal volume of 0.9% sodium chloride for injection USP administered by intravenous sinfusion once per week for 12 weeks. Although the dosing study is not powered to detect statistically significant treatment differences on MRI outcomes and cognition, the MRI is required per FDA safety concerns with respect to amyloid-related imaging abnormalities, such as micro hemorrhages, as per FDA correspondence. Grouped differences from placebo-treated participants were evaluated in an exploratory fashion using the outcomes planned for the larger phase 2, proof of concept trial in order to obtain parameter estimates for the trial design.]
Allo dose selection of 2.0, 4.0 and 6.0 mg was determined by pre-clinical dose response analyses for neurogenesis, an IV bridging study in 3×TgAD mice, prior clinical studies, physiologically-based pharmacokinetics (PBPK) modeling and simulations of pharmacodynamic responses using available pre-clinical and clinical data of non-sedative to mildly sedative doses Planned study Allo doses are within the FDA requirement to not exceed 157 nmol/L (50 ng/ml) plasma concentration Planned Allo dose equivalencies based on 70 kg human are: 2.0 mg=0.028 mg/kg; 4.0 mg=0.056/mg/kg; 6.0 mg=0.084 mg/kg. With respect to safety, intravenous doses of Allo in the same dose range as those for this trial have been administered previously with acceptable safety and. […] Allo in sulfobutylether-β-cyclodextrin and 0.9% sodium chloride formulation was administered intravenously over 30 minutes once per week for 12 weeks. Participants were monitored under medical supervision for a minimum of two hours after each dose. The regimen for Allo administration is based on preclinical analyses that indicate that a once per week treatment regimen results in increased neurogenesis with reduction in AD pathology.

Setting [7] is: ApoE3:3 females and males, 24 weekly injections.

Turning to `CC(=O)[C@H]1CC[C@H]2[C@@H]3CC[C@H]4C[C@H](O)CC[C@]4(C)[C@H]3CC[C@]12C` [Allo, 3α-hydroxy-5α-pregnan-20-one], the “Novel Object Discrimination Index” value is “no effect” in data set [1] (setting [7]); “significantly increased” in data set [1] (ApoE 4/4 females and males, p<0.05). Further, the “Novel Object Exploration time” value is on record as “no effect, either positive or negative” in data set [1] (setting [7]); “significantly increased” in data set [1] (ApoE 4:4 females, 24 weekly injections); “trended towards an increase” in data set [1] (ApoE4:4 males, 24 weekly injections). In addition, the “Exploration of the novel object” value in data set [1] (ApoE 3:4 female mice, p=0.05) is reported as “significantly increased”. Further, the “Ability to discriminate between novel vs familiar object (Discrimination Index)” value in data set [1] (ApoE 3:4 female mice, p=0.06) is “trended towards a significant increase”. Further, the “TEAEs (nausea, mild sedation, fatigue, flushing, anxiety)” value in data set [2] was “mild and transient”. Further, in data set [3] (intravenous infusion), the “MTD, established by onset of sedation” value is listed as above 6 mg. The “Adverse effects, serious adverse events, ARIA” value in data set [3] (twelve week exposure, multiple doses once per week) is listed as “no reportable adverse effects, serious adverse events or ARIA”. Besides, in data set [4] (Allo 4 mg cohort, 12 weeks), the “Left hippocampal volume (subfield analysis)” value is “increase in left hippocampal volume”. In data set [4] (human subjects over 55 years having Apo E4 genetic marker), the Brain mass result is listed as “increased brain mass”. For the same compound, the “MRI based indicators of gray matter volume” value in data set [4] (structural analysis, 12 weeks) is “consistent with regeneration in select brain regions”. The “Cognitive function measured by ADAScog14” value in data set [5] was “not improved”. In addition, in data set [5] (some indicators), the Cog state indicators entry is reported as “consistent with improvement”. Further, the “Correlation (R) of Cmax with Allo delivered in mg/kg dose” value in data set [6] (2, 4 and 6 mg cohorts) is listed as 0.77. Further, in data set [6] (from start of 30 minute intravenous infusion, AD patients), the “Time to peak plasma levels” value is at most 30 min. Moreover, the figures for the Cmax in data set [6] (2 mg intravenous infusion), in data set [6] (4 mg intravenous infusion) and in data set [6] (6 mg intravenous infusion) were 63 ± 21 nM, 130 ± 26 nM and 248 ± 84 nM, respectively.
